Experimental findings from ChEMBL document CHEMBL5506055, “Hit-to-Lead Optimization of the Natural Product Oridonin as Novel NLRP3 Inflammasome Inhibitors with Potent Anti-Inflammation Activity” (J Med Chem, 2024) are described below.

As usually defined, the IC50 is the concentration that gives 50% inhibition. In general, inhibition refers to the drop in the measured response relative to a control, in per cent. By clearance is commonly meant the rate of elimination divided by the concentration. A low value points to inefficient removal. By half-life is commonly meant how long it takes for the measured level to halve. A word on the AUC: it is concentration integrated over time. A lower AUC goes with low exposure. The term bioavailability denotes dose-corrected exposure relative to a reference, in per cent. High values mean much systemic uptake, low ones little systemic uptake. The Cmax is the peak of the concentration-time curve.

In data set [1] the target is T1, NACHT, LRR and PYD domains-containing protein 3 (Mus musculus, UniProt Q8R4B8). The data set is described as follows: Inhibition of NLRP3 inflammasome activation in mouse J774.A1 cells. It is filed as cell-based.
Data set [2] addresses T1, NACHT, LRR and PYD domains-containing protein 3. The data set is described as follows: Inhibition of NLRP3 inflammasome activation in LPS/ATP-induced C57BL/6 mouse BMDMs assessed as reduction in IL-1beta secretion preincubated with LPS for 4 hrs followed by compound addition for 30 mins and further stimulated with ATP for 30 mins by ELISA. It is filed as cell-based, BMDM. A general note: An ELISA detects its analyte on a solid surface through an enzyme-linked reagent.

Data set [3] has as its target NACHT, LRR and PYD domains-containing protein 3 (Mus musculus) (UniProt Q8R4B8). To be noted: BMDM, dose 10.0 nM, time 1.0 hrs.
Data set [4] in a line: Selectivity index, ratio of CC50 for cytotoxicity against C57BL/6 mouse BMDMs to IC50 for inhibition of NLRP3 inflammasome activation in C57BL/6 mouse BMDMs. The format is toxicity. To be noted: bone marrow-derived macrophages (BMDMs), read-out: Ratio CC50/IC50.
Data set [5] addresses NACHT, LRR and PYD domains-containing protein 3 (Mus musculus) (UniProt Q8R4B8). The data set is described as follows: Inhibition of NLRP3 inflammasome activation in LPS/ATP-induced C57BL/6 mouse BMDMs assessed as reduction in IL-1beta secretion at 200 nM preincubated with LPS for 4 hrs followed by compound addition for 30 mins and further stimulated with ATP for 30 mins by ELISA relative to control. The format is cell-based. To be noted: BMDM, time 1.0 hrs.

Data set [6] shares this target. The data set is described as follows: Inhibition of NLRP3 inflammasome activation in LPS/ATP-induced C57BL/6 mouse BMDMs assessed as reduction in IL-1beta secretion at 100 nM preincubated with LPS for 4 hrs followed by compound addition for 30 mins and further stimulated with ATP for 30 mins by ELISA relative to control. The format is cell-based. To be noted: BMDM, time 1.0 hrs.

The target is the same in data set [7]. The data set is described as follows: Inhibition of NLRP3 inflammasome activation in LPS/ATP-induced C57BL/6 mouse BMDMs assessed as reduction in IL-1beta secretion at 500 nM preincubated with LPS for 4 hrs followed by compound addition for 30 mins and further stimulated with ATP for 30 mins by ELISA relative to control. To be noted: BMDM, time 1.0 hrs. The format is cell-based.

The next data set concerns the target hERG (KCNH2) (Homo sapiens, UniProt Q12809). The data set is described as follows: Inhibition of human ERG expressed in CHO cells at 40 uM relative to control. The format is toxicity, cell-based. To be noted: CHO cells that express human ERG.
The nature of data set [8]: Clearance in ICR mouse at 1 mg/kg, iv measured upto 24 hrs by LC-MS/MS method. To be noted: in vivo. The format is ADME, organism-based.
Data set [9] in a line: Stability in human plasma assessed as half life measured upto 8 hrs. It is filed as ADME, cell-free.
The target in data set [10] is Voltage-gated inwardly rectifying potassium channel KCNH2 (Homo sapiens, UniProt Q12809). The data set is described as follows: Inhibition of human ERG expressed in CHO cells. It is filed as toxicity, cell-based.
Data set [11] in a line: AUC in ICR mouse at 10 mg/kg, po measured upto 24 hrs by LC-MS/MS method. It is filed as ADME, organism-based. To be noted: ICR, in vivo.
The nature of data set [12]: Oral bioavailability in ICR mouse at 10 mg/kg measured upto 24 hrs by LC-MS/MS method. It is filed as ADME, organism-based. To be noted: ICR, in vivo.
Data set [13] in a line: Stability in mouse liver microsomes assessed as half life preincubated for 5 mins with NADPH followed by compound addition and measured upto 120 mins by LC-MS/MS analysis. It is filed as ADME, Microsome. To be noted: time < 125 min. On the technique in general: Microsomes from liver hold many membrane-bound enzymes, among them those of drug oxidation.
Data set [14] can be described thus: Stability in mouse plasma assessed as half life measured upto 8 hrs. It is filed as ADME, cell-free.
Data set [15] in a line: AUC in ICR mouse at 1 mg/kg, iv measured upto 24 hrs by LC-MS/MS method. It is filed as ADME, organism-based. To be noted: ICR, in vivo.
Data set [16] can be described thus: Cmax in ICR mouse at 10 mg/kg, po measured upto 24 hrs by LC-MS/MS method. The format is ADME, organism-based. To be noted: in vivo.
Data set [17] is described as follows: Stability in human liver microsomes assessed as half life preincubated for 5 mins with NADPH followed by compound addition and measured upto 120 mins by LC-MS/MS analysis. To be noted: time < 125 min. The format is ADME, Microsome.
Data set [18] can be described thus: Half-life in ICR mouse at 1 mg/kg, iv measured upto 24 hrs by LC-MS/MS method. It is filed as ADME, organism-based. To be noted: in vivo.
The nature of data set [19]: Stability in rat plasma assessed as half life measured upto 8 hrs. It is filed as ADME, cell-free.
A short description of data set [20]: Stability in rat liver microsomes assessed as half life preincubated for 5 mins with NADPH followed by compound addition and measured upto 120 mins by LC-MS/MS analysis. It is filed as ADME, Microsome. To be noted: time < 125 min.
Data set [21] in a line: Half-life in ICR mouse at 10 mg/kg, po measured upto 24 hrs by LC-MS/MS method. The format is ADME, organism-based. To be noted: in vivo.
Another data set deals with Mus musculus. The data set is described as follows: Antiinflammatory activity in MSU-induced C57BL/6 mouse model of arthritis assessed as reduction in inflammatory cell infiltration at 12.5 mg/kg, iv measured after 24 hrs. The format is functional, organism-based.

The structures appear in SMILES notation. The source made the active and inactive calls. The rule behind the calls is not given here.

T1 sequence (Q8R4B8 whole entry, the tested form may be a part): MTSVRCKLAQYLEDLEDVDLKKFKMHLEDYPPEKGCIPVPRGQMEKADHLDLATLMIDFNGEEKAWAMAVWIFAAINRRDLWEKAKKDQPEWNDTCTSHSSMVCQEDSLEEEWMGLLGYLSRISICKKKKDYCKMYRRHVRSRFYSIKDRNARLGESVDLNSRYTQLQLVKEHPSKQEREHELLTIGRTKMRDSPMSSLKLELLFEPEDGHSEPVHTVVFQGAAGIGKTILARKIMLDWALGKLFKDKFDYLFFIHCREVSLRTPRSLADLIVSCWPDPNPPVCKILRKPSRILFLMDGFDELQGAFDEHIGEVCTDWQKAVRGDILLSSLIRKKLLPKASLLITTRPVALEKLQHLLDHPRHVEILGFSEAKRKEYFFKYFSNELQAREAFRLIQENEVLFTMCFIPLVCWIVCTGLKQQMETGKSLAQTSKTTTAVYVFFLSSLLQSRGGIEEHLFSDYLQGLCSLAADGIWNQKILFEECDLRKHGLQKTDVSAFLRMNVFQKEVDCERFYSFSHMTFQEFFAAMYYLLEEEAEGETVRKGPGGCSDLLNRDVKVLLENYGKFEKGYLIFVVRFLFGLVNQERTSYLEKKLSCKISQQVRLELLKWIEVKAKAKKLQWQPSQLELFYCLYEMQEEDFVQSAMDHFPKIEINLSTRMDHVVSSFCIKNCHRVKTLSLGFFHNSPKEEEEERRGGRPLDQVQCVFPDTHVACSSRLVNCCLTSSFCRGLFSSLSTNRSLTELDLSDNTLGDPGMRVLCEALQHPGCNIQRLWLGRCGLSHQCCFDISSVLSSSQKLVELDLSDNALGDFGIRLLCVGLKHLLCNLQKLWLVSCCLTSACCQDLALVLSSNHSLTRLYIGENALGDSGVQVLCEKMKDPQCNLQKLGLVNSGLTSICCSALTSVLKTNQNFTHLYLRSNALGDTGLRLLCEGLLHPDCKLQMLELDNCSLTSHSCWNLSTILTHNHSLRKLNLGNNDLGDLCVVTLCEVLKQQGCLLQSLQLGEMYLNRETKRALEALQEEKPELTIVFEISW
Sequence of NACHT, LRR and PYD domains-containing protein 3 (Mus musculus) (Q8R4B8 whole entry, the tested form may be a part): as above
Sequence of hERG (KCNH2) (Q12809 whole entry): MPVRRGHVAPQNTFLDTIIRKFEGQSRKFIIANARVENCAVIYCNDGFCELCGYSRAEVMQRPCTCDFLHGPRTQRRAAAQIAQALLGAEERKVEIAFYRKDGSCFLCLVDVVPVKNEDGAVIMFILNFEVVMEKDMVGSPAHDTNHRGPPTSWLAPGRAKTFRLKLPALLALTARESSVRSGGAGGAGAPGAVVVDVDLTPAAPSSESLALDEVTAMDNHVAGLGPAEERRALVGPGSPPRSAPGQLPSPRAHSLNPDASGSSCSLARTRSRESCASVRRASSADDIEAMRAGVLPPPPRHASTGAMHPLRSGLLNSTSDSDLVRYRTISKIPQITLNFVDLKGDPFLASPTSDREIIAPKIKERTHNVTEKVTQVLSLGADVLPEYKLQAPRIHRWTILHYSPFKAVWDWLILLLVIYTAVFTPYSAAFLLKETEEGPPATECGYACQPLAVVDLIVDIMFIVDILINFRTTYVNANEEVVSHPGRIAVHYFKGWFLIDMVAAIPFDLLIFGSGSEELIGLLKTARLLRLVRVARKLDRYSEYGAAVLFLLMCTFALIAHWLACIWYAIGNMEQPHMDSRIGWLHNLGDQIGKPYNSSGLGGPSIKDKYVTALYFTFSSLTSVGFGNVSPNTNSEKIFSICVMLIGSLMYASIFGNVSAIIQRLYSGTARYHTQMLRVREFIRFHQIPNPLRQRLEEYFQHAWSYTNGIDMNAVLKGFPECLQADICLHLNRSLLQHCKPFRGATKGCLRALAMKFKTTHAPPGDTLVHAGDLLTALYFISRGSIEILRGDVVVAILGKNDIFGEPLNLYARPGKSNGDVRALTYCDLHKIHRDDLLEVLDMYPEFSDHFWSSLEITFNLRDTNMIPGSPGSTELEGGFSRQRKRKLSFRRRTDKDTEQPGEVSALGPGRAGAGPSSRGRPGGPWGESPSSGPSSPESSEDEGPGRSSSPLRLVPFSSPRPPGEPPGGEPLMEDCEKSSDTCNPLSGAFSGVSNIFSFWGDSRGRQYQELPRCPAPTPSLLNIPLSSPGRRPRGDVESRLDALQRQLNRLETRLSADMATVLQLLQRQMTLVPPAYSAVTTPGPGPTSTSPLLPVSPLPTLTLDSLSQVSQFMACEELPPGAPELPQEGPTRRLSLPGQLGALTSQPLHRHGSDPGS
Sequence of Voltage-gated inwardly rectifying potassium channel KCNH2 (Q12809 whole entry): as above

The compound `CS(=O)(=O)/C=C/C#N` registered an IC50 in [1] of 100 nM.
On to `CC(C)n1ccc(S(=O)(=O)NC(=O)Nc2c3c(cc4c2CCC4)CCC3)n1` [INZOMELID], for which the IC50 in data set [2] was found to be 14 nM. Moreover, the inhibition in data set [3] was 42.7%.
Consider `C=C1C(=O)[C@]23[C@H](O)[C@H]1CC[C@H]2[C@]12C=CCC(C)(C)[C@H]1[C@H](O)[C@@]3(OCCC(=O)N1CCOCC1)OC2`, for which, in [2], the concentration for half-maximal inhibition (IC50) worked out at 72.2 nM. Also, the selectivity ratio in data set [4] is 30.2. The values for the inhibition in data set [5], in data set [6] and in data set [7] were 83.9%, 62.7% and 95.1%, respectively.
Turning to `COc1cc(N)c(Cl)cc1C(=O)NC1CCN(CCCOc2ccc(F)cc2)CC1OC` (centres undefined) [CISAPRIDE], on hERG (KCNH2), 40 µM produced 98.7% inhibition.
`C=C1C(=O)[C@]23[C@H](O)[C@H]1CC[C@H]2[C@]12C=CCC(C)(C)[C@H]1[C@H](O)[C@@]3(OCc1cncs1)OC2` gave a clearance in data set [8] of 49.1 mL/min/kg. The half-life in [9] is 5.99 h; in data set [13], 3.13 min; in [14] it was 1.9 h; in data set [17], 4.22 min; in [18], 1.5 h; in [19] it was 1.74 h. Also, the half-life in data set [20] is 5.56 min; in data set [21], 1.36 h. Also, the IC50 was over 40000 nM in [10] and 50.2 nM in [2]. For the same compound, the AUC at 24 h worked out at 10.8 ng·h/mL in data set [11] and 337 ng·h/mL in data set [15]. In [12], the bioavailability was 0.64%. The Cmax in data set [16] is 11.4 ng/mL. Further, the inhibition was 93.9% in [5], 77.3% in [6] and 97.3% in [7]. This compound yielded an inhibition at 40 µM against hERG (KCNH2) of 43.3%.
On to `C=C1C(=O)[C@]23[C@H](O)[C@H]1CC[C@H]2[C@]12C=CCC(C)(C)[C@H]1[C@H](O)[C@@]3(OCCC(=O)N(CCC)CCC)OC2`, for which the IC50 in [2] worked out at 178 nM. Besides, the inhibition in data set [5] came out at 67.4%; in data set [6], 25.4%; in data set [7], 71.6%.
On to `C=C1C(=O)[C@]23[C@H](O)[C@H]1CC[C@H]2[C@]12C=CCC(C)(C)[C@H]1[C@H](O)[C@@]3(OCCC(=O)NC)OC2`, for which the concentration for half-maximal inhibition (IC50) in data set [2] came out at 216 nM. The values for the inhibition in data set [5], in [6] and in data set [7] were 43.1%, 27.2% and 76.7%, respectively.
Taken in the same sequence, the figures for `C=C1C(=O)[C@]23[C@H](O)[C@H]1CC[C@H]2[C@]12C=CCC(C)(C)[C@H]1[C@H](O)[C@@]3(OCCC(=O)NCC(C)C)OC2` were 137 nM, 59.9%, 40.7% and 79.1%.
`C=C1C(=O)[C@]23[C@H](O)[C@H]1CC[C@H]2[C@]12C=CCC(C)(C)[C@H]1[C@H](O)[C@@]3(OCC(=O)O)OC2`: the IC50 in [2] is 406 nM. The figures for the inhibition in data set [5], in [6] and in [7] were 25.5%, 12.9% and 55.4%, respectively.
Taken in the same sequence, the figures for `C=C1C(=O)[C@]23[C@H](O)[C@H]1CC[C@H]2[C@]12C=CCC(C)(C)[C@H]1[C@H](O)[C@@]3(OCc1nccs1)OC2` were 1890 nM, 56.7%, 46.2% and 63.2%.
In [3], `CC(C)(O)c1coc(S(=O)(=O)NC(=O)Nc2c3c(cc4c2CCC4)CCC3)c1` came in with an inhibition of 80.5%. Moreover, in the data set on Mus musculus, the outcome was Active.
`C=C1C(=O)[C@]23[C@H](O)[C@H]1CC[C@H]2[C@]12C=CCC(C)(C)[C@H]1[C@H](O)[C@@]3(OCCC(=O)NCCOC)OC2`: the IC50 in [2] came out at 286 nM. Besides, the inhibition in data set [5] stood at 49%; in [6], 18%; in [7] it was 69.9%.
In the case of `C=C1C(=O)[C@]23[C@H](O)[C@H]1CC[C@H]2[C@@]12CO[C@]3(O)[C@@H](O)[C@@H]1C(C)(C)CC[C@@H]2O` [ORIDONIN], the IC50 in data set [2] turned out to be 780 nM. Further, the inhibition is 14.3% in data set [5], 0.2% in data set [6] and 41.2% in data set [7].
For the compound `C=C1C(=O)[C@]23[C@H](O)[C@H]1CC[C@H]2[C@]12C=CCC(C)(C)[C@H]1[C@H](O)[C@@]3(OCCC(=O)NC1CCCCC1)OC2`, in [2], the IC50 was determined as 194 nM. For the same compound, the inhibition was determined as 40.6% in [5], 36.5% in [6] and 74.1% in data set [7].
Taken in the same sequence, the figures for `C=C1C(=O)[C@]23[C@H](O)[C@H]1CC[C@H]2[C@]12C=CCC(C)(C)[C@H]1[C@H](O)C3(OCc1cccnc1)OC2` (single isomer, unassigned) were 232 nM, 44.5%, 24.5% and 68.4%.
For the compound `C=C1C(=O)[C@]23[C@H](O)[C@H]1CC[C@H]2[C@]12C=CCC(C)(C)[C@H]1[C@H](O)[C@@]3(OCCC(=O)NCCC)OC2`, the IC50 in data set [2] worked out at 283 nM. For the same compound, the inhibition in data set [5] is 47.2%; in [6], 20.3%; in data set [7] it was 60%.
Taken in the same sequence, the figures for `C=C1C(=O)[C@]23[C@H](O)[C@H]1CC[C@H]2[C@]12C=CCC(C)(C)[C@H]1[C@H](O)[C@@]3(OCCC(=O)NC1CCCC1)OC2` were 137 nM, 56%, 42.3% and 84.7%.
